Results: patent US20200015478A1, “ANTIBACTERIAL COMPOSITION CONTAINING CARYOLAN-1-OL” (INDUSTRY-ACADEMIC COOPERATION FOUNDATION GYEONGSANG …, priority 2016, published 2020)

System: Botrytis cinerea
Assay: Mycelium growth rate of Botrytis cinerea with synthesized caryolan-1-ol vapour from paper disc
Format: cell-based
Details: Botrytis cinerea on PDA, 10 μl acetone solution on paper disc, sealed, 27° C., 4 days, FIG. 6
Procedure: Next, in order to verify the antibacterial activity of the synthesized caryolan-1-ol, PDA (Potato starch 4 g, dextrose 20 g, Agar 20 g with respect to 1 liter) medium was prepared so as to allow 60 mm Petri dishes to have 12 ml space. Botrytis cinerea was inoculated with a radius of 2 mm Based on the concentration at which caryolan-1-ol was completely gaseous, caryolan-1-ol was dissolved in acetone, and then the solution was treated to the paper disc placed on a lid at 10 μl each. After sealing, they were cultured at 27° C., and the growth rate of mycelium was measured for 4 days. The growth rate for the acetone treatment group was determined.

CC12CCCC(O)(C1)C1CC(C)(C)C1CC2 (stereo not shown) [caryolan-1-ol]
growth rate of mycelium relative to acetone treatment group: significantly inhibited the growth
